Tests used:
[1] = system: E. coli strain BL21 (DE3) Tlr pBT10 pACYC:Duet[TAcv]; test: Toxicity of liquid cation exchangers in fermentation, oxygen transfer rate (OTR) (Example 5); assay type: cell-based; details: ion exchanger 10% w/w in methyl laurate; for toxic effect on cells judged from the OTR curve: 150 mL added to fermentation broth, 22 h
Description: The biotransformation of methyl laurate to methyl aminolaurate was tested in an 8-fold parallel fermentation system from DasGip with different ion exchangers.
1 L reactors were used for the fermentation. The pH probes were calibrated using a two-point calibration with measurement solutions of pH 4.0 and pH 7.0. The reactors were filled with 300 mL of water and autoclaved for 20 min at 121° C. in order to ensure sterility. The pO2 probes were then polarized overnight (at least 6 h). On the next morning, the water was removed under the clean bench and replaced by high cell density medium with 50 mg/L kanamycin and 34 mg/L chloramphenicol. Subsequently, the pO2 probes were calibrated with a one-point calibration (stirrer: 600 rpm/gassing: 10 sL/h air) and the feed, correctant and induction means stretches were cleaned by means of clean-in-place. For this, the tubes were flushed with 70% ethanol, then with 1 M NaOH, then with sterile demineralised water, and finally filled with the respective media.
The ALS and ALSME producing E. coli strain BL21 (DE3) Tlr pBT10 pACYC:Duet[TAcv] was firstly grown from cryoculture in LB medium (25 mL in a 100 mL baffled flask) with 50 mg/L kanamycin and 34 mg/L chloramphenicol overnight at 37° C. and 200 rpm for ca. 18 h.
The 3 cultures were combined in a shake flask and the optical density was determined at 7.2. In order to inoculate the reactors with an optical density of 0.1, in each case 4.2 mL were drawn up in a 5 mL syringe and the reactors were inoculated by means of canulae via a septum.
The experiment carried out can be divided into two phases, the cultivation during which the cells should reach a certain optical density, and the subsequent biotransformation during which the expression of the genes required for the biotechnological process for producing ALSME was induced. The pH values were regulated to pH 6.8 on the one hand with ammonia (12.5%). During cultivation and biotransformation, the dissolved oxygen (DO) in the culture was regulated at 30% via stirrer speed and gassing rate. The fermentation was carried out as a feed batch, where the feed start, 5 g/Lh glucose feed (500 g/L glucose with 1% MgSO4*7H2O and 2.2% NH4Cl), was triggered via a DO peak. […] The expression of the transaminase was induced 2 h after feed start via the automatic addition of IPTG (1 mM). The induction of the alk-genes was carried out by the manual addition of DCPK (0.025% v/v) 10 h after feed start. Before the start of the biotransformation, the optical density of the culture broths was determined.
The start of the biotransformation phase was carried out 14 h after feed start. For this, 150 mL of a mixture of methyl laurate and the respective ion exchanger (10% w/w) were added as a batch to the fermentation broth. The ion exchangers used were di(2-ethylhexyl)phosphoric acid (DEHPA), lauric acid, oleic acid, palmitic acid, palmitoleic acid, stearic acid and a mixture of free fatty acids from the saponification of globe thistle oil. In order to provide an amino group donor for the transaminase, at the same time as the addition of the organic phase, 10.7 mL of an alanine solution (125 g/L) were added to the fermentation broth. For the sampling, 2 mL of fermentation broth were removed from the reactor and part of it was diluted 1/20 in an acetone/HCl mixture (c(HCl)=0.1 mol/L) and extracted. Samples were taken from all 8 reactors at 1.25 h, 3 h, 5 h, 20 h, 22 h […] after the start of the biotransformation. The transfer rates for oxygen (OTR=oxygen transfer rate) and carbon (CTR=carbon transfer rate) were determined during the fermentation via offgas analysis on the DasGip systems. The fermentation was ended 22 h after the start of the biotransformation.

[2] = Removal (reactive extraction) of DAI and DAS from an aqueous phase into a hydrophobic organic phase (Example 3); assay type: physicochemical
Source text: The organic solvents used here are kerosene (K), benzyl benzoate (B), methyl laurate (ML), cis-9-ocitadecen-1-ol (OD). As liquid cation exchangers, oleic acid and D2EHPA were compared in terms of their effect with the respective pure solvent.
The experimental procedure proceeded identically in all cases: the aqueous phase comprised 2% by weight of diamine and the organic phase consisted of the corresponding solvent and 20% by weight of the respective liquid cation exchanger. The volume ratio of the two phases was 1:1 (in each case 4.5 ml). At a constant temperature of T=30° C., the samples were shaken for 2 hours in a water bath. Then, after centrifugation and phase separation, the phases were analyzed. The pH was adjusted in all cases with aqueous ammonia or sulphuric acid.

E. coli BL21(DE3) = test: Toxicity of liquid cation exchangers, CFU determination (Example 2)
Source text: 50% DEHPA and lauric acid (15%), each dissolved in LSME and laden equimolar or 25 mol % with ALSME, were contacted as liquid cation exchanger with a E. coli BL21 (DE3) strain, and the influence of these two compounds on the ability of the strain to form colonies, expressed in CFUs, was investigated.

E. coli BW3110 = test: Toxicity of the solvent LSME, CFU determination (Example 1); assay type: cell-based; details: cells OD600 60 in 10 mL Kp buffer mixed with 5 mL LSME 98% (w/w), 30° C.
Description: The OD600 was 60. […] One dilution stage per preparation was plated out.

E. coli W3110 [3] = details: culture covered with identical volume of solvent, oleic acid volume adapted with LSME
Description: Firstly, a preculture comprising 20 ml LB medium was inoculated in a 100 ml baffled flask with a cryoculture of the corresponding strain. The culture was cultured overnight at 37° C. and with shaking at 200 rpm used on the next day in order to inoculate an identical main culture to an OD of 0.2. The main cultures (each 30 mL of LB medium) were then further incubated under identical conditions. At an OD of 0.4 to 0.5, the main culture was covered with in each case identical volumes (30 ml) of solvent and then further incubated.
To determine the number of CFU (colony-forming units) 0.1 ml samples were taken in the following experiments and diluted in sterile 0.9% NaCl solution. Suitable dilution stages were plated out on LB agar plates. After incubation at 34° C. overnight, the colonies formed were counted and the CFUs determined.
For this, two different concentrations of oleic acid were used and the volume was adapted by adding the corresponding amount of LSME (methyl laurate).
On account of the lower solubility of the unsaturated fatty acid lauric acid, this was used in a smaller amount. The volumes of the different cation exchangers were made the same with the LSME. The number of CFUs was determined at the start, after 4.5 h and after 24 h.

E. coli W3110 [4] = test: Reduction in the toxicity of ALSME by contacting with a liquid cation exchanger, CFU determination (Example 4); details: ALSME 0.2% (w/v) dissolved in aqueous systems, no organic phase
Description: Before the determination of the CFU was able to be carried out, a plate LB (10 g/L peptone from casein, 5 g/L yeast extract, 10 g/L NaCl) was streaked with E. coli BW3110 and incubated for 24 h. On the evening of the following day, a preculture was inoculated from this previously streaked plate. […] After the incubation of the main culture, the cells were harvested, centrifuged at 5258 g and 4° C. for 10 min and resuspended with an OD600 of 30 in 10 mL 50 mM Kp, buffer at pH 7.4 (or 25 mM HEPES buffer pH 7.4 if CFU determinations were carried out with ALSME). Both buffer solutions used contained 5% glucose (w/v). The bacteria suspension was then transferred to the shake flasks and treated with the respective substance solutions. After thorough mixing has taken place by swirling the flask, 100 μL of the suspension was pipetted out and placed into 900 μL, of previously charged sterile saline. This corresponded to sampling at time point t0. Then followed incubation of the preparations at 250 rpm and 30° C. The CFUs were determined over a period of 22 h. The samples were taken firstly at time points t0, t3, t6 and t22. For some preparations, a further sampling time point t15 was added and, in addition to this, a further additional dilution series was plated out in order to minimize deviations.
The bacteria were firstly resuspended in 5 mL (corresponds to half of the buffer volume). […]

[5] = oleic acid 20% by weight, solvent methyl laurate, pH lowered with sulphuric acid
[6] = E. coli BL21(DE3), culture covered with identical volume of solvent, oleic acid volume adapted with LSME

CCCCCC/C=C\CCCCCCCC(=O)O [palmitoleic acid]
toxic effect on cells judged from the OTR curve [1]: even lower toxicity than the saturated fatty acids

CCCCCCCCCCCCCCCCCC(=O)O [stearic acid]
toxic effect on cells judged from the OTR curve [1]: considerably lower toxic effect

NC1COC2C(N)COC12 (centres unmarked) [DAI, diaminoisoiditol]
degree of extraction ([2]; D2EHPA 20% by weight as liquid cation exchanger, without addition of acid or alkali, pH range 5.4 to 6.2, 30° C., 2 h, phases 1:1): ca. 100%
maximum degree of extraction [2, 5]: 48%
maximum degree of extraction ([2]; oleic acid, solvent benzyl benzoate, pH 1.1): 15.3
maximum degree of extraction ([2]; oleic acid, solvent cis-9-octadecen-1-ol, pH 7.9, neither alkali nor acid added): 85%
maximum degree of extraction ([2]; oleic acid, solvent kerosene, pH 8.4): 77.5%

CCCCC(CC)COP(=O)(O)OCC(CC)CCCC (centres unmarked) [DEHPA, di(2-ethylhexyl)phosphoric acid, reference compound]
Number of CFUs after 22 or 24 h relative to t = 0 h (E. coli BL21(DE3); E. coli): 0%
toxic effect on cells judged from the OTR curve [1]: high grade toxic effect
OTR after adding the compound to the culture ([1]; 150 mL, within a short time): 0

NC1COC2C(N)COC12 (centres unmarked) [DAS, diaminoisosorbitol]
maximum degree of extraction [2, 5]: 4%
maximum degree of extraction ([2]; oleic acid, solvent benzyl benzoate, pH 7.3): 61.5%
maximum degree of extraction ([2]; oleic acid, solvent cis-9-octadecen-1-ol, pH 6 (starting pH reduced with H2SO4)): 5.5%
maximum degree of extraction ([2]; oleic acid, solvent kerosene, pH 8.5): 85%

CCCCCCCCCCCC(=O)OC [LSME, methyl laurate]
percentage decrease in living cell count (E. coli BW3110; after 22 h): 30.3%
number of CFU/mL (E. coli BW3110; over a period of 6 h): remained constant
tolerance by the strains used (E. coli BL21(DE3); preliminary experiments): well tolerated

CC(C)CCCCCC(=O)O [Isononanoic acid]
Number of CFUs after 22 or 24 h relative to t = 0 h (E. coli BL21(DE3); [6]): 0%
Number of CFUs after 22 or 24 h relative to t = 0 h (E. coli W3110 [3]): 0%

COC(=O)CCCCCCCCCCCN [ALSME, methyl 12-aminolaurate]
effect on the bacteria (E. coli W3110 [4]): bactericidal effect

CCCCCCCCCCCCCCCC(=O)O [palmitic acid]
toxic effect on cells judged from the OTR curve [1]: considerably lower toxic effect

CCCCCCCCCCCC(=O)O [Lauric acid]
Number of CFUs after 22 or 24 h relative to t = 0 h (E. coli BL21(DE3); E. coli): 1.2%
toxic effect on cells judged from the OTR curve [1]: notably less toxic than DEHPA

CCCCC(CC)C(=O)O (centres unmarked) [2-Ethylhexanoic acid]
Number of CFUs after 22 or 24 h relative to t = 0 h (E. coli BL21(DE3); [6]): 0%
Number of CFUs after 22 or 24 h relative to t = 0 h (E. coli W3110 [3]): 0%

CCCCCCCC/C=C\CCCCCCCC(=O)O [oleic acid]
toxic effect on cells judged from the OTR curve [1]: even lower toxicity than the saturated fatty acids

— US10071951B2, “Liquid cation exchanger” (Evonik Degussa GmbH, priority 2011, dated 2018)
